This passage reports IC50 results from patent US20170000749A1, “Methods for Treating Cognitive Disorders Using Inhibitors of Histone Deacetylase” (Forum Pharmaceuticals, Inc., priority 2008, published 2017).

Where two headings read alike, the source gives them in different places.

Assay [1] relates to HDAC activity in primary mouse cortical cultures. Put plainly: Whole-Cell Histone Deacetylase (HDAC) Inhibition Assay in Primary Mouse Cortical Cultures. In kind it is cell-based. To be noted: whole-cell (WC), mouse cortical neurons, read-out: HDAC Inhibition (IC50 μM) WC mouse cortical neurons. In short, it runs like this:
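Primary neocortical neurons from E17 Balb/C mouse embryos were plated at 50000 cells/well and treated at DIV9 with ten-point DMSO dilutions for 16-18 h at 37° C, in triplicate. BOC-Lys(Ac)-AMC substrate was then added for 1 h. Fluor de Lys developer containing 1 uM TSA produced a fluorophore, which was read.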

For assay [2], the target named is one or more of HDAC-1, HDAC-2, HDAC-3, HDAC-4, HDAC-5, HDAC-6, HDAC-7, HDAC-8, HDAC-9, HDAC-10 and HDAC-11. Put plainly: Inhibition of Histone Deacetylase Enzymatic Activity (Boc-Lys(Ac)-AMC substrate, Fluor-de-Lys developer). In kind it is biochemical. To be noted: read-out: HDAC Inhibition (IC50 μM) HDAC Enzyme. As to the method:
The following protocol is used to assay the compounds of the disclosure.
The mixture is pre-incubated for 5 minutes at room temperature. The reaction is started by bringing the temperature to 37° C. and adding 16 μl substrate. Total reaction volume is 50 μl.
In the Tables 8, 9 and 10, A≦0.05 μM; 0.05 μM<B≦0.1 μM; 0.1 μM<C≦1 μM; and 1 μM<D≦10 μM.

As for `O=C(NO)c1cnc(N2C[C@@H]3C[C@H]2CN3c2cc(C(F)(F)F)ccn2)nc1` [N-hydroxy-2-((1S,4S)-5-(4-(trifluoromethyl)pyridin-2-yl)-2,5-diazabicyclo[2.2.1]heptan-2-yl)pyrimidine-5-carboxamide], the values for the IC50 in assay [1] (Table 9) and in assay [2] (Table 9) were less than 1 µM and less than 0.05 µM, respectively.
For the molecule `O=C(NO)c1cnc(N2C[C@@H]3C[C@H]2CN3c2nccc(C(F)(F)F)n2)nc1` [N-hydroxy-2-((1S,4S)-5-(4-(trifluoromethyl)pyrimidin-2-yl)-2,5-diazabicyclo[2.2.1]heptan-2-yl)pyrimidine-5-carboxamide], the IC50 (usually the midpoint of a concentration-inhibition curve) in assay [1] (Table 9) was less than 1 µM; in assay [2] (Table 9) it was less than 0.05 µM.
For `O=C(NO)c1cnc(N2C[C@@H]3C[C@H]2CN3c2cncc(C(F)(F)F)c2)nc1` [N-hydroxy-2-((1S,4S)-5-(5-(trifluoromethyl)pyridin-3-yl)-2,5-diazabicyclo[2.2.1]heptan-2-yl)pyrimidine-5-carboxamide], in that order: less than 1 µM and less than 0.05 µM.
Take `O=C(NO)c1cnc(N2C[C@@H]3C[C@H]2CN3c2cccc(C(F)(F)F)n2)nc1` [N-hydroxy-2-((1S,4S)-5-(6-(trifluoromethyl)pyridin-2-yl)-2,5-diazabicyclo[2.2.1]heptan-2-yl)pyrimidine-5-carboxamide]: the IC50 was less than 1 µM in assay [1] (Table 9) and less than 0.05 µM in assay [2] (Table 9).
In the case of `O=C(NO)c1cnc(N2C[C@@H]3C[C@H]2CN3C(=O)N2CCCC2)nc1` [N-hydroxy-2-((1S,4S)-5-(pyrrolidine-1-carbonyl)-2,5-diazabicyclo[2.2.1]heptan-2-yl)pyrimidine-5-carboxamide], the IC50 in assay [1] (Table 9) is less than 1 µM; in assay [2] (Table 9), 0.05 to 0.1 µM.
Take `Cc1cccc(N2C[C@@H]3C[C@H]2CN3c2ncc(C(=O)NO)cn2)c1` [N-hydroxy-2-((1S,4S)-5-m-tolyl-2,5-diazabicyclo[2.2.1]heptan-2-yl)pyrimidine-5-carboxamide]: the IC50 in assay [1] (Table 9) is less than 1 µM; in assay [2] (Table 9), less than 0.05 µM.
For `Cc1ccccc1N1C[C@@H]2C[C@H]1CN2c1ncc(C(=O)NO)cn1` [N-hydroxy-2-((1S,4S)-5-o-tolyl-2,5-diazabicyclo[2.2.1]heptan-2-yl)pyrimidine-5-carboxamide], in that order: 1 to 5 µM and 0.05 to 0.1 µM.
For `Cc1ccc(N2C[C@@H]3C[C@H]2CN3c2ncc(C(=O)NO)cn2)cc1` [N-hydroxy-2-((1S,4S)-5-p-tolyl-2,5-diazabicyclo[2.2.1]heptan-2-yl)pyrimidine-5-carboxamide], in that order: less than 1 µM and less than 0.05 µM.
On the same counts, the results for `O=C(NO)c1cnc(N2C[C@@H]3C[C@H]2CN3c2ccccc2)nc1` [N-hydroxy-2-((1S,4S)-5-phenyl-2,5-diazabicyclo[2.2.1]heptan-2-yl)pyrimidine-5-carboxamide] are less than 1 µM and 0.05 to 0.1 µM.
Consider `O=C(CCn1cc(CN2C(=O)c3ccccc3Oc3ccccc32)nn1)NO` [N-hydroxy-3-(4-((11-oxodibenzo[b,f][1,4]oxazepin-10(11H)-yl)methyl)-1H-1,2,3-triazol-1-yl)propanamide], for which the IC50 fell in the range of 1 to 5 µM in assay [1] (Table 10) and 0.1 to 1 µM in assay [2] (Table 10).
Turning to `O=C(CCc1ccc(CN2C(=O)c3ccccc3Oc3ccccc32)cc1)NO` [N-hydroxy-3-(4-((11-oxodibenzo[b,f][1,4]oxazepin-10(11H)-yl)methyl)phenyl)propanamide], the half-maximal inhibitory concentration (IC50) in assay [1] (Table 10) lay within 1 to 5 µM; in assay [2] (Table 10), 0.1 to 1 µM.
For the molecule `O=C(NO)c1ccc(C#CCN2C(=O)c3ccccc3Oc3ccccc32)cc1` [N-hydroxy-4-(3-(11-oxodibenzo[b,f][1,4]oxazepin-10(11H)-yl)prop-1-ynyl)benzamide], the IC50 in assay [1] (Table 10) is 1 to 5 µM; in assay [2] (Table 10) it was less than 0.05 µM.
As to `O=C(NO)c1ccc(CCCN2C(=O)c3ccccc3Oc3ccccc32)cc1` [N-hydroxy-4-(3-(11-oxodibenzo[b,f][1,4]oxazepin-10(11H)-yl)propyl)benzamide], the figures for the IC50 in assay [1] (Table 10) and in assay [2] (Table 10) were less than 1 µM and 0.05 to 0.1 µM, respectively.
Regarding `COc1cccc(N2CC3CC2CN3c2ccc(C(=O)NO)cc2)c1` (stereo not drawn) [N-hydroxy-4-(5-(3-methoxyphenyl)-2,5-diazabicyclo[2.2.1]heptan-2-yl)benzamide], the half-maximal inhibitory concentration (IC50) in assay [1] (Table 9) fell in the range of 1 to 5 µM; in assay [2] (Table 9), 0.1 to 1 µM.
Consider `Cc1cccc(N2CC3CC2CN3c2ccc(C(=O)NO)cc2)c1` (stereo not drawn) [N-hydroxy-4-(5-m-tolyl-2,5-diazabicyclo[2.2.1]heptan-2-yl)benzamide], for which the IC50 in assay [1] (Table 9) lay within 1 to 5 µM; in assay [2] (Table 9) it was 0.1 to 1 µM.
For `CN1c2ccccc2Oc2ccccc2C1c1ccc(C(=O)NO)cc1` (stereo not drawn) [N-hydroxy-4-(10-methyl-10,11-dihydrodibenzo[b,f][1,4]oxazepin-11-yl)benzamide], the IC50 in assay [1] (Table 8) lay in the range of 5 to 15 µM; in assay [2] (Table 8) it was 0.1 to 1 µM.
As to `O=C(NO)c1ccc(N2C(=O)c3ccccc3Oc3ccccc32)cc1` [N-hydroxy-4-(11-oxodibenzo[b,f][1,4]oxazepin-10(11H)-yl)benzamide], the values for the half-inhibitory concentration (IC50) in assay [1] (Table 10) and in assay [2] (Table 10) were greater than 15 µM and 0.1 to 1 µM, respectively.
As to `O=C(NO)c1ccc(N2C[C@H]3C[C@@H]2CN3c2cc(C(F)(F)F)ccn2)cc1` [N-hydroxy-4-((1R,4R)-5-(4-(trifluoromethyl)pyridin-2-yl)-2,5-diazabicyclo[2.2.1]heptan-2-yl)benzamide], the IC50 lay in the range of 5 to 15 µM in assay [1] (Table 9) and 1 to 10 µM in assay [2] (Table 9).
For the molecule `Cc1cccc(N2C[C@H]3C[C@@H]2CN3c2ccc(C(=O)NO)cc2)c1` [N-hydroxy-4-((1R,4R)-5-m-tolyl-2,5-diazabicyclo[2.2.1]heptan-2-yl)benzamide], the 50% inhibitory concentration (IC50) lay in the range of 1 to 5 µM in assay [1] (Table 9) and 0.1 to 1 µM in assay [2] (Table 9).
For `O=C(NO)c1ccc(N2C[C@@H]3C[C@H]2CN3c2cccc(C(F)(F)F)c2)cc1` [N-hydroxy-4-((1S,4S)-5-(3-(trifluoromethyl)phenyl)-2,5-diazabicyclo[2.2.1]heptan-2-yl)benzamide], in that order: 1 to 5 µM and 0.1 to 1 µM.
Take `O=C(NO)c1ccc(N2C[C@@H]3C[C@H]2CN3c2cc(C(F)(F)F)ccn2)cc1` [N-hydroxy-4-((1S,4S)-5-(4-(trifluoromethyl)pyridin-2-yl)-2,5-diazabicyclo[2.2.1]heptan-2-yl)benzamide]: the IC50 in assay [1] (Table 9) was 1 to 5 µM; in assay [2] (Table 9), 0.1 to 1 µM.
Take `Cc1ccc(N2C[C@@H]3C[C@H]2CN3c2ccc(C(=O)NO)cc2)cc1` [N-hydroxy-4-((1S,4S)-5-p-tolyl-2,5-diazabicyclo[2.2.1]heptan-2-yl)benzamide]: the IC50 in assay [1] (Table 9) fell in the range of 1 to 5 µM; in assay [2] (Table 9), 0.1 to 1 µM.
As to `O=C(NO)c1ccc(CN2C(=O)c3ccccc3CCc3ccccc32)cc1` [N-hydroxy-4-((6-oxo-11,12-dihydrodibenzo[b,f]azocin-5(6H)-yl)methyl)benzamide], the IC50 in assay [1] (Table 10) fell in the range of 1 to 5 µM; in assay [2] (Table 10), 0.1 to 1 µM.
For `O=C(NO)c1ccc(Cn2c(=O)c3ccccc3c3ccccc32)cc1` [N-hydroxy-4-((6-oxophenanthridin-5(6H)-yl)methyl)benzamide], in that order: less than 1 µM and less than 0.05 µM.
Take `O=C(NO)c1ccc(CN2C(=O)c3ccccc3Oc3ccccc32)cc1` [N-hydroxy-4-((11-oxodibenzo[b,f][1,4]oxazepin-10(11H)-yl)methyl)benzamide]: the IC50 in assay [1] (Table 10) is less than 1 µM; in assay [2] (Table 10), less than 0.05 µM.
On to `O=C(NO)c1cnc(N2C[C@@H]3C[C@H]2CN3c2cccc(C(F)(F)F)c2)cn1` [N-hydroxy-5-((1S,4S)-5-(3-(trifluoromethyl)phenyl)-2,5-diazabicyclo[2.2.1]heptan-2-yl)pyrazine-2-carboxamide], for which the figures for the IC50 in assay [1] (Table 9) and in assay [2] (Table 9) were 5 to 15 µM and 0.1 to 1 µM, respectively.
For the molecule `Cc1ccc(N2CC3CC2CN3c2ccc(C(=O)NO)cn2)cc1` (stereo not drawn) [N-hydroxy-6-(5-p-tolyl-2,5-diazabicyclo[2.2.1]heptan-2-yl)nicotinamide], the 50% inhibitory concentration (IC50) in assay [1] (Table 9) was less than 1 µM; in assay [2] (Table 9), less than 0.05 µM.
Consider `O=C(CCCCCN1C(=O)c2ccccc2Oc2ccccc21)NO` [N-hydroxy-6-(11-oxodibenzo[b,f][1,4]oxazepin-10(11H)-yl)hexanamide], for which the IC50 was less than 1 µM in assay [1] (Table 10) and less than 0.05 µM in assay [2] (Table 10).
Regarding `O=C(NO)c1ccc(N2C[C@@H]3C[C@H]2CN3c2cccc(C(F)(F)F)c2)nn1` [N-hydroxy-6-((1S,4S)-5-(3-(trifluoromethyl)phenyl)-2,5-diazabicyclo[2.2.1]heptan-2-yl)pyridazine-3-carboxamide], the IC50 in assay [1] (Table 9) fell in the range of 5 to 15 µM; in assay [2] (Table 9) it was 0.1 to 1 µM.
As for `O=C(CCCCCCn1c(=O)c2ccccc2c2ccccc21)NO` [N-hydroxy-7-(6-oxophenanthridin-5(6H)-yl)heptanamide], the values for the IC50 in assay [1] (Table 10) and in assay [2] (Table 10) were less than 1 µM and less than 0.05 µM, respectively.
Consider `O=C(CCCCCCN1C(=O)c2ccccc2Oc2ccccc21)NO` [N-hydroxy-7-(11-oxodibenzo[b,f][1,4]oxazepin-10(11H)-yl)heptanamide], for which the IC50 in assay [1] (Table 10) was less than 1 µM; in assay [2] (Table 10), less than 0.05 µM.
Turning to `O=C(CCCCCCN1C(=O)c2ccccc2Sc2ccccc21)NO` [N-hydroxy-7-(11-oxodibenzo[b,f][1,4]thiazepin-10(11H)-yl)heptanamide], the IC50 in assay [1] (Table 10) is less than 1 µM; in assay [2] (Table 10), less than 0.05 µM.
With `O=C(CCCCCCOc1nc2ccccc2c2ccccc12)NO` [N-hydroxy-7-(phenanthridin-6-yloxy)heptanamide], the 50% inhibitory concentration (IC50) is 5 to 15 µM in assay [1] (Table 10) and less than 0.05 µM in assay [2] (Table 10).
